These results are taken from patent US10858425B2, “Pan-ELR+ CXC chemokine antibodies” (Eli Lilly and Company, priority 2013, dated 2020).

The subject of assay [1] is SKOV3-Luc ovarian cancer cells. The experiment in a line: SKOV3-Luc ovarian cancer xenograft model. In kind it is in vivo, athymic nude female mice. How it is done:
SKOV3-Luc is a human ovary cancer cell line that expresses firefly luciferase gene. SKOV3-Luc cells are often used in vivo to establish human ovarian adenocarcinoma tumor growth.
SKOV3-Luc ovarian cancer cells were mixed 1:1 with matrigel and implanted subcutaneously in the right rear flank of athymic nude female mice at 3.0×10^6 cells per injection. Mice were randomized into 4 groups at baseline according to tumor volume after the xenografts were grown to an average tumor volume of 200 mm^3. Mice received either control IgG4 antibody (2.5 mg/kg once a week), cisplatin (2.5 mg/kg once a week), Antibody 1 (20 mg/kg once a week), or a combination of cisplatin (2.5 mg/kg once a week) and Antibody 1 (20 mg/kg once a week) by intraperitoneal injection.

Assay [2] deals with T1, human CXCR2 (U937-huCXCR2 cells) (Homo sapiens, UniProt P25025).
T1 construct: expressed in transfected cells; host or cells: U937 monocytic cell line, retrovirally transduced
T1 sequence (P25025 1-360): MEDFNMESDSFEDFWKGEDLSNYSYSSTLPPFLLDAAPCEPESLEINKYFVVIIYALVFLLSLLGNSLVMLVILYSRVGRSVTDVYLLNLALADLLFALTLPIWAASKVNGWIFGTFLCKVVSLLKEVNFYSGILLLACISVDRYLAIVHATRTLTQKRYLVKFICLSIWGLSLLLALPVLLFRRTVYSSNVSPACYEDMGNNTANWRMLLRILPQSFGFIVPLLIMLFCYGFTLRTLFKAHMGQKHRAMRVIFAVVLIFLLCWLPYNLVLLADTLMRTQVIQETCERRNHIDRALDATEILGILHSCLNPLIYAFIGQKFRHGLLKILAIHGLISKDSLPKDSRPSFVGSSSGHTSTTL
Description: U937-huCXCR2 FLIPR activity of human CXCL8 wild type and mutants. In kind it is cell-based. The settings on record: CXCL8 variant as ligand on U937-huCXCR2 cells. On the procedure:
Wild type and mutant human CXCL8 are tested for biologic activity and for neutralization by Antibody 1 using the U937-huCXCR2 assay. U937-huCXCR2 is a monocytic cell line transduced with retrovirus for expression of human CXCR2. A description of the U937-huCXCR2 assay is found below under Neutralizing Assays.
CXCL8 mutants are serially diluted in Assay Buffer containing 0.2% BSA in wells of v-bottom 96-well polypropylene plates. Ligand concentrations are 3 times the final assay concentration (final assay concentrations range from 300 to 0.0051 nM). A cell plate and a ligand plate are loaded into a Fluorescent Imaging Plate Reader (FLIPR-3, Molecular Devices) programmed to transfer 50 μL of ligand to wells of the cell plate. Fluorescence is recorded at 1 second intervals for 90 seconds. The change in fluorescence [delta relative fluorescence units (DRFU), Max RFU-Min RFU] is calculated from images 10 to 90. DRFU versus log (ligand concentration) is plotted and EC50 values are determined by nonlinear regression using Graph Pad Prism. Assays are performed in triplicate over three assay plates.

As for `N.N.[Cl][Pt][Cl]` [Cisplatin, cisplatin], the “Average Tumor Volume” value is 122.65 mm^3 in assay [1] (Day 14); 190.65 mm^3 in assay [1] (Day 19); 289.15 mm^3 in assay [1] (Day 22); 484.72 mm^3 in assay [1] (Day 26); 806.31 mm^3 in assay [1] (Day 32); 923.02 mm^3 in assay [1] (Day 35). Also, the “Average Tumor Volume” value in assay [1] (Day 40) is recorded as 941.42 mm^3; in assay [1] (Day 43), 1047.34 mm^3. Besides, in assay [1] (compared to isotype control, intraperitoneal, once a week), the tumor growth inhibition result was “did not show statistically significant tumor growth inhibition”.
On to “I10A: human CXCL8 point mutant I10A based on SEQ ID NO: 27 [Antibody I10A]”, for which the “U937 FLIPR activity EC50” value in assay [2] is on record as “Not Active”.
Still for that read-out and setting: the result for “I40A: human CXCL8 point mutant I40A based on SEQ ID NO: 27 [Antibody I40A]” reads “Not Active”.
The same measure, in the same setting: the same measure for “R6A: human CXCL8 point mutant R6A based on SEQ ID NO: 27 [Antibody R6A]”: “Not Active”.
